The results in this text go back to patent publication US20090131513A1, “ANTI-INFLAMMATORY MODALITIES” (Novogen Research Pty Ltd., priority 2005, published 2009).

Experiment [1] relates to inflammed rat air pouches (serum-treated zymozan). Kind of experiment: Rat air pouch assay. The experiment is classed as in vivo, rats (Dark Agouti). Conditions: 0.5 ml of 100 μM into pouch; for Leucocytes in lavage fluid (×10^−7): lavage at 4 h. The protocol:
An alternative assay used to measure anti-inflammatory efficacy is the air pouch model which involves the repeated subcutaneous injection of air into the dorsum of rats followed 24 h later by the intrapouch injection of an inflammatory stimulus (Gilroy et al. 1998).
Air pouches were raised on the dorsum of female Dark Agouti rats, approximately 7 weeks of age. To promote the formation of a cellular membrane lining the inside of each pouch, the pouches were maintained by re-inflating on days 2 and 5 after the initial injection of air. On re-inflation, the pouch was first deflated to ensure the needle was positioned correctly, before being re-inflated with 2 mL of sterile air. Using this protocol, the pouches remained inflated until use on day 7, when they were injected with 0.5 ml of either test compound at 100 μM or vehicle control. After 15 min, air pouches were injected with serum-treated zymozan (STZ-500 μg). Lavage of the air pouch (4×2 ml lavages) was performed at 4 h and leucocytes counted, after which the rats were killed, the air pouch excised and processed in formalin for histology. The sections were blinded to the person counting. Using a graticule with 100 squares and the 40× objective, the number of polymorphs were counted in the pouch lining at 10 different and non-adjacent sites. Group sizes were 5-6 rats. Data were analysed for statistical significance within each experiment and using an unpaired t test.

For experiment [2] the test system is unchanged. Kind of experiment: Rat air pouch assay. The class given is in vivo, rats (Dark Agouti). Conditions: At 1 mM application.
The subject of experiment [3] is AA-induced ear inflammation. Kind of experiment: Murine ear inflammation induced by arachidonic acid. The experiment is classed as in vivo, mice (BALB/c). Conditions: for Increase in ear thickness (mean ± SD, ×0.01 mm): 25 mg/kg i/p, 1 hr post-AA application; for AA-induced ear inflammation / ear thickness compared with vehicle, in words: mouse, in vivo. The source says: Compounds were examined for their ability to inhibit ear swelling in mice induced by the topical application of arachidonic acid (AA). The inflammatory response due AA, the immediate precursor of the eicosanoids, is due to formation of AA metabolites via both the cyclooxygenase (COX) and lipoxygenase (LOX) pathways (Young et al. 1984). AA induces an increase in both PGE2 and LTC4 synthesis which precedes the increase in ear thickness (Opas et al. 1985; Chang et al. 1986).
Female BALB/c mice (ARC, WA, Australia), weighing 15-21 g were injected with Compound 2 delivered in polyethylene glycol (PEG) 400:phosphate buffered saline (PBS) 1:1 intraperitoneally (i/p) at a dose of 25 mg/kg either 30 min prior to or immediately before the application of AA to the ears. Mice were anaesthetized using isoflurane and baseline thickness of both ears was measured using a spring micrometer. Each mouse received a total of 20 μL of AA in ethanol (50 mg/ml) applied to the inner and outer surfaces of each pinna (i.e. 0.5 mg AA per ear). Mice were anaesthetized again to remeasure the ears at 1 hr post-AA application.
The difference in ear swelling pre- and post-application of AA for each ear was calculated, and the average for the two ears of each mouse calculated. The difference in mean swelling of each test group compared to the group given vehicle alone was calculated using a two-tailed unpaired t test (Prism 4, GraphPad Software).

The subject of experiment [4] is UV irradiation-induced skin oedema. Kind of experiment: Murine model of UV irradiation-induced skin oedema. The experiment is classed as in vivo, mice (Skh:hr-1 albino). As to conditions: for Increase in skin thickness (mean ± SD, ×0.01 mm): topical 0.2 ml of 20 μM at 30 min, 2 h, 4 h. The text has this: Groups of 4-5 female Skh:hr-1 albino mice were irradiated with 1×3 MEdD (minimal edematous dose) of solar simulated UV radiation (SSUV). Solar-simulated ultraviolet radiation (SSUV) was provided by a planar bank of 6 UVA tube (Hitachi 40 W F40 T 10/BL, black light) and one UVB tube (Philips TL 40 W/12 RS) with radiation filtered through a sheet of 0.125 mm cellulose acetate (Eastman Chemical Products, Kingport, Term, USA) to give 2.96×10-4 W/cm2 UVA and 1.59×10-5 W/cm2 UVB. During irradiation, the cages were rotated below the lights to reduce the variation in radiation intensity in different positions.
Either test compound (0.2 ml of a 20 μM solution) or vehicle (propylene glycol/ethanol/water 1:2:1) was applied to the irradiated dorsal skin at 30 min, 2 h and 4 h post-irradiation. Dorsal skin fold measurements were made with a spring micrometer prior to and at 24 hr and 48 h post-UV exposure. The difference in skin thickness pre- and post-exposure to UVR was calculated for each mouse, and the differences examined between test compound and vehicle control were analysed using an unpaired two-tailed t test.

Experiment [5] has as its system NO synthesis in mouse macrophage cell line RAW 264.7. Kind of experiment: Inhibition of nitric oxide synthesis (Griess reaction). The class given is cell-based. Conditions: 10 μM. The protocol: Exposure of various cells (e.g. macrophages and smooth muscle cells) to bacterial LPS and proinflammatory cytokines induces iNOS which generates NO. NO production can be indirectly quantified by measurement of nitrite (NO2—), a stable breakdown product of NO. The mouse macrophage cell line RAW 264.7 was cultured in DMEM supplemented with FCS, 2 mM glutamine and 50 U/ml penicillin/streptomycin. Cells were treated with either test compound at 10 μM (in 0.125% DMSO) or vehicle alone, together with 10 ng/ml LPS. After incubation for 24 hrs, culture media was collected and analysed immediately for NO concentration using the Griess reaction (Eigler et al. 1995).

Another experiment has as its system DSS-induced colitis. Kind of experiment: Murine model of DSS-induced colitis. Conditions: for ulceration of the posterior colon (mice affected): vehicle 3/8; for mean clinical score versus vehicle: Experiment 3, 11 (p=0.0252); for colonic inflammation, in words: series of experiments, 1.0-1.25 mg/kg single oral dose per day. The class given is in vivo, mice (BALB/c). On the procedure:
Female BALB/c mice, 6-7 weeks old, were housed for a minimum of one week before any experimental work began. To induce colitis, dextran sulphate sodium (DSS—molecular weight 40 kD, TdB Consultancy AB, Uppsala, Sweden (Dieleman et al. 1994), was administered fresh daily in the drinking water at a concentration of 4.5-5% for 5 days (Okayasu et al. 1990), after which water alone was given. This regime induced mild colitis, evidenced by diarrhea and rectal bleeding, the severity of which was scored, as well as a reduction in the length of the colon. Histologically, colonic inflammation was evidenced by ulceration and an infiltration of neutrophils into the mucosa, which was also scored. The systemic effect of the colitis causes weight loss, which was also monitored.
Either vehicle (PEG 400:PBS1:1) Compounds 1 or 4 were administered at a dose rate of 1 mg/kg throughout the experiment until the mice were killed at day 17.
Either Compounds 1 and 2, at a dose of 1 mg/kg or vehicle were administered for 10 days prior to DSS being added to the drinking water to induce colitis, after which test compound was stopped. DSS was administered for 5 days and the mice killed 8 days later (day 23).
Either the cis or the trans isomers of Compound 3 (Compound 3a and 3b respectively) at 1.25 mg/kg or vehicle were administered throughout the experiment until the mice were killed at day 17.

The test system of the next experiment is NFκB promoter activity. Kind of experiment: Inhibition of NFκB promoter activity (β-lactamase reporter) in TNFα-stimulated THP-1 cells. The class given is cell-based, human. As to conditions: 5 h. On the procedure: Human macrophage THP-1 cells, modified to include the β-lactamase reporter gene, were seeded into wells of a 96-well plate (50×10^3 cells/well) in the presence of RPMI 1640 medium (70 μl). TNFα (7.5 ng/ml) and human sera (final concentration of 20%) were added to each well. Plates were incubated for 5 h at 37° C. to allow for NFkB-stimulated β-lactamase production. LiveBLAzer™ FRET B/G Substrate (CCF4-AM) was then added to assay for β-lactamase activity. Once CCFA-AM enters a cell, it is converted to negatively charged CCF4 by endogenous esterases. Excitation of this substrate at 409 nm leads to efficient FRET between the coumarin and fluorescein moieties, resulting in a green fluorescence detectable at 530 nm. The presence of β-lactamase leads to cleavage of CCF4 and results in a loss of FRET, resulting in a robust blue fluorescent signal detectable at 460 nm. Thus, activity of beta-lactamase (a marker of NFkB-promoter activity) is measured as a product to substrate ratio (blue/green fluorescence ratio: 460 nm/530 nm).

Another experiment concerns the target T1, TX synthase (TXS) (Homo sapiens, UniProt P24557).
T1 construct: endogenous in cells; host or cells: undifferentiated U937 cells
T1 sequence (P24557 1-533): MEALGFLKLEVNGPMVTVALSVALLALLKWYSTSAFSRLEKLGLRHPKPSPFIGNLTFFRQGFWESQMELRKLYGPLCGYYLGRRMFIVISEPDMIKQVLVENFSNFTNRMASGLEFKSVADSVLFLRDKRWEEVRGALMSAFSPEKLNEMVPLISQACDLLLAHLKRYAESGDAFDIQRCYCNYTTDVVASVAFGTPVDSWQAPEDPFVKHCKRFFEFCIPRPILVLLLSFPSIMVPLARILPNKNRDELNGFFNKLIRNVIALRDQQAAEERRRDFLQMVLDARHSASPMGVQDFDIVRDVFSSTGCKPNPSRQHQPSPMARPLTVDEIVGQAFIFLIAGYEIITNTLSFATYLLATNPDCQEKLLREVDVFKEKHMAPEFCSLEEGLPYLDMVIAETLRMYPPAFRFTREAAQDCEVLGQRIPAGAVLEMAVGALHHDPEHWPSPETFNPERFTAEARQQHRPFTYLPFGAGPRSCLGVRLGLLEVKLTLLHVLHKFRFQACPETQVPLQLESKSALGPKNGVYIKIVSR
Kind of experiment: TXB2 synthesis following addition of exogenous PGH2 to U937 cells. The experiment is classed as cell-based. Conditions: 1, 10, 100 μM, undifferentiated U937 cells, PGH2 5 μM. The protocol: To examine effects of test compounds directly on TX synthase (TXS), a different assay system was used. Whereas arachidonic acid (AA) is the substrate for COX, PGH2 is the substrate for TX synthase. To examine directly the effect of these compounds on TXS, exogenous ? elow:
Test compounds at 0 μM, 1 μM, 10 μM and 100 μM (in DMSO) were incubated with undifferentiated U937 cells (6×10^6/ml) for 30 min at 37° C., after which PGH2 (5 μM) was added. After incubation for 10 min, the reaction was terminated by centrifugation and the supernatants were collected and TXB2 production was measured in triplicate by RIA. ANOVA followed by Newman-Keuls multiple comparisons test was used to examine differences between doses and the control values. A statistical significance level of 0.05 was used and differences from control values are indicated by an asterisk (*).

SMILES strings stand for the structures.

As to `Cc1c(O)ccc2c1OCC(c1ccc(O)cc1)C2O` (single isomer, unassigned) [Compound 3a], the “Polymorphs in tissue sections (per 100 squares)” value in experiment [1] (4 h) was 17.9 ± 14.2 per 100 squares. Further, the “Leucocytes in lavage fluid (×10^−7)” value in experiment [1] is on record as 0.47 ± 0.4 ×10^−7. Besides, the “number of polymorphs in the tissue sections, in words” value in experiment [2] is listed as “suppressed the number of polymorphs”. Moreover, in experiment [3], the “Increase in ear thickness (mean ± SD, ×0.01 mm)” value is on record as 6.7 ± 2.1 ×0.01 mm and the “AA-induced ear inflammation / ear thickness compared with vehicle, in words” value is given as “significant reduction in ear thickness”. Moreover, the “Increase in skin thickness (mean ± SD, ×0.01 mm)” value in experiment [4] (24 hrs post-irradiation) was determined as 32 ± 18 ×0.01 mm. In addition, the “Increase in skin thickness (mean ± SD, ×0.01 mm)” value in experiment [4] (48 hrs post-irradiation) was 69 ± 24 ×0.01 mm. In experiment [4] (both time points (24 and 48 hrs), topical), the “UV-induced inflammation / skin oedema, in words” value is recorded as “significantly inhibited skin oedema”. Also, the “NO synthesis, direction of effect in words” value in experiment [5] is listed as “inhibited NO synthesis”. Moreover, in the experiment on DSS-induced colitis (Experiment 3, 1.25 mg/kg), the “colon length versus vehicle” value is “significantly longer (p=0.039)”, the “day of switch from mean body weight loss to mean body weight gain” value was determined as 4 days, the “degree of mucosal damage versus vehicle” value is “significantly lower (p=0.018)” and the “ulceration of the posterior colon (mice affected)” value is recorded as “not observed”. Further, the “colonic inflammation and its resolution, in words” value in the experiment with DSS-induced colitis (Experiment 3, 1.25 mg/kg throughout until day 17) is “reduced colonic inflammation and hastened its resolution”. Moreover, the “maximum mean weight loss” value in the experiment on DSS-induced colitis (Experiment 3, 1.25 mg/kg, vehicle nearly 5%) was “less than 2%”. Moreover, the “mean clinical score versus vehicle” value in the experiment on DSS-induced colitis (days 8 (p=0.0078), 9 (p=0.0326), 10 (p=0.0386), 15 (p=0.0033), 16 (p=0.0016)) was “significantly lower”. For the same molecule, in the experiment with DSS-induced colitis, the “colonic inflammation, in words” value is “reduced colonic inflammation”.

As to `Cc1c(O)ccc2c1OCC(c1ccc(O)cc1)C2O` (single isomer, unassigned) [Compound 3b], in experiment [1], the “Leucocytes in lavage fluid (×10^−7)” value was 0.66 ± 0.23 ×10^−7. Moreover, in experiment [3], the “Increase in ear thickness (mean ± SD, ×0.01 mm)” value was determined as 7.1 ± 3.0 ×0.01 mm and the “AA-induced ear inflammation / ear thickness compared with vehicle, in words” value is listed as “significant reduction in ear thickness”. Besides, the “Increase in skin thickness (mean ± SD, ×0.01 mm)” value in experiment [4] (24 hrs post-irradiation) amounted to 56 ± 14 ×0.01 mm. Moreover, the “Increase in skin thickness (mean ± SD, ×0.01 mm)” value in experiment [4] (48 hrs post-irradiation) is 113 ± 25 ×0.01 mm. In experiment [5], the “NO synthesis, direction of effect in words” value is reported as “inhibited NO synthesis”. In addition, in the experiment on DSS-induced colitis (Experiment 3, 1.25 mg/kg), the “ulceration of the posterior colon (mice affected)” value is recorded as 1/8. The “mean clinical score versus vehicle” value in the experiment with DSS-induced colitis (days 8 (p=0.0055), 9 (p=0.0057), 17 (p=0.0177)) is “significantly lower”. The “colonic inflammation, in words” value with DSS-induced colitis is listed as “reduced colonic inflammation”.

Regarding `Cc1cc(O)cc2c1C(=O)C(c1ccc(O)cc1)CO2` (stereo not shown) [Compound 5], the “inhibition of NFκB compared to vehicle control” value in the experiment on NFκB promoter activity is on record as “significantly (p<0.001) inhibited”. Moreover, at TX synthase (TXS), the “thromboxane synthase inhibition (TXB2 synthesis after exogenous PGH2), selectivity in words” value is reported as “selective thromboxane synthase inhibitors”.
